According to ChEMBL document CHEMBL1148688, “4-Aryl-5-cyano-2-aminopyrimidines as VEGF-R2 inhibitors: synthesis and biological evaluation” (Bioorg Med Chem Lett, 2007):

Legend:
[1] = target: Vascular endothelial growth factor receptor 2 (Homo sapiens, UniProt P35968); test: Inhibition of VEGFR2 activity
[2] = target: Cyclin-dependent kinase 1 (Homo sapiens, UniProt P06493); test: Inhibition of CDK1 activity
Mus musculus [3] = test: Drug level in nude mouse plasma at 100 mg/kg, po; type: ADME, organism-based; design: dose 100 mg/kg, route oral; settings: in vivo
[4] = Oral bioavailability in nude mouse at 3 mg/kg; type: ADME, organism-based; settings: in vivo
[5] = Half life in nude mouse at 100 mg/kg, po; type: ADME, organism-based; design: dose 100 mg/kg, route oral; settings: in vivo
Mus musculus [6] = test: Decrease in body weight in C57BL/6 mouse at 100 to 175 mg/kg, po; settings: in vivo
[7] = Area under curve in nude mouse at 3 mg/kg; type: ADME, organism-based; design: dose 3 mg/kg; settings: in vivo

Chain of Vascular endothelial growth factor receptor 2 (P35968 whole entry): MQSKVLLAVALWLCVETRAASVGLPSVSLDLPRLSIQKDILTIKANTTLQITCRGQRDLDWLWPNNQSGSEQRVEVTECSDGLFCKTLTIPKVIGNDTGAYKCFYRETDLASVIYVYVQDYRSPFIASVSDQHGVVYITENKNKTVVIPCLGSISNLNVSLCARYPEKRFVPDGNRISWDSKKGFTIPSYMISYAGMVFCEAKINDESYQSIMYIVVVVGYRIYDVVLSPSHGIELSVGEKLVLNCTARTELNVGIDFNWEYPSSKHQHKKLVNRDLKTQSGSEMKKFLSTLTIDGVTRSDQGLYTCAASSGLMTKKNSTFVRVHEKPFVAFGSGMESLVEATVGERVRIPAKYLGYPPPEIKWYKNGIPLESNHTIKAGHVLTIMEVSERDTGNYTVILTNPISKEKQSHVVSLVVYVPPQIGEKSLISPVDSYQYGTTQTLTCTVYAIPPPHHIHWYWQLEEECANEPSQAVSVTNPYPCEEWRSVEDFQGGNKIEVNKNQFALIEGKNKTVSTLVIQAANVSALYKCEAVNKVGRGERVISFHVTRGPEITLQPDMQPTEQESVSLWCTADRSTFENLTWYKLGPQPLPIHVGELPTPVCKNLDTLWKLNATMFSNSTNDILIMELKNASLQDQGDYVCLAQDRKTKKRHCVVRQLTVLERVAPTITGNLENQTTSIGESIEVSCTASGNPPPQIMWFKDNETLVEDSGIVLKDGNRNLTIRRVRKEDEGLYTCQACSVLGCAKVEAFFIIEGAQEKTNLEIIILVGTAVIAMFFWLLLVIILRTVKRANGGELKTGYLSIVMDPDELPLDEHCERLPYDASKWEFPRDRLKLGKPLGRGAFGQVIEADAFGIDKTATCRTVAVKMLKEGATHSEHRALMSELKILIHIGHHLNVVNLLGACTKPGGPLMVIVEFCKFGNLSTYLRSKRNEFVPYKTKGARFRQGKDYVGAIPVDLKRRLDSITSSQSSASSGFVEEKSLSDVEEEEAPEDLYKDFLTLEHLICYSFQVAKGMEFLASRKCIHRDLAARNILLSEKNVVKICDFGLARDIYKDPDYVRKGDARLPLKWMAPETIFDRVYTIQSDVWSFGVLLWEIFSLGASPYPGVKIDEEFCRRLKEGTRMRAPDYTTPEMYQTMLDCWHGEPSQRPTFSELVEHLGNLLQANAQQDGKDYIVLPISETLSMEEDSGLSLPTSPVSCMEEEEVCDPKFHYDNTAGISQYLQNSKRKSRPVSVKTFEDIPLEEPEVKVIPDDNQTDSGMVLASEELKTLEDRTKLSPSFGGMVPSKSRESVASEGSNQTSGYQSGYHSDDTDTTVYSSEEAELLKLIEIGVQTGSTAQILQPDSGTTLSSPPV
Chain of Cyclin-dependent kinase 1 (P06493 whole entry): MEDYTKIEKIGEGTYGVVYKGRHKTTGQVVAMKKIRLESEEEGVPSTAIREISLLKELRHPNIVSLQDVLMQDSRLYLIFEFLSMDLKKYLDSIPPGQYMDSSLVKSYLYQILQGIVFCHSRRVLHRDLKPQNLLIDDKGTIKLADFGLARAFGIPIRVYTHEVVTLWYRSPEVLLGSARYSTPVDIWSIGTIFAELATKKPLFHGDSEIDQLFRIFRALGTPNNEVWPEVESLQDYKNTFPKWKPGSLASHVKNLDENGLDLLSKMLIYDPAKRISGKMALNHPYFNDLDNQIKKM

Compound	IC50 [1]	IC50 [2]	also measured
COc1ccc(-c2nc(Nc3ccc(CCO)cc3)ncc2C#N)cc1	0.15 µM	1.5 µM	–
N#Cc1cnc(Nc2ccc(CCO)cc2)nc1-c1cc2ccccc2[nH]1	1.4 µM	1.7 µM	–
COc1cc(Nc2ncc(C#N)c(-c3ccccc3)n2)ccc1CN1CCCC1	0.091 µM	9 µM	–
N#Cc1cnc(Nc2ccc(CCN3CCCC3)cc2)nc1-c1ccccc1	0.11 µM	6.5 µM	–
CC(C)(N)c1ccc(-c2nc(Nc3ccc(CCN4CCOCC4)cc3)ncc2C#N)cc1	0.027 µM	4.1 µM	concentration (Mus musculus [3]): 12 µM; bioavailability [4]: 44%; half-life [5]: 7 h; Activity (Mus musculus [6]): Not Active; AUC [7]: 15.6 µM·h
CC(C)(N)c1ccc(-c2nc(Nc3ccc(CCO)cc3)ncc2C#N)cc1	0.052 µM	1.6 µM	–
CC(C)(O)c1ccc(-c2nc(Nc3ccc(CCO)cc3)ncc2C#N)cc1	0.41 µM	2.7 µM	–
N#Cc1cnc(Nc2ccc(CCO)cc2)nc1-c1ccc(Br)cc1	0.18 µM	2 µM	–
Cc1ccc(Nc2ncc(C#N)c(-c3ccccc3)n2)cc1	1 µM	3.5 µM	–
N#Cc1cnc(Nc2ccc(CCO)cc2)nc1-c1ccc(S(N)(=O)=O)cc1	0.2 µM	1.9 µM	–
N#Cc1cnc(Nc2ccc(CCC(=O)N3CCOCC3)cc2)nc1-c1ccccc1	0.18 µM	2.1 µM	–
N#Cc1cnc(Nc2ccccc2Cl)nc1-c1ccccc1	> 10 µM	> 10 µM	–
N#Cc1cnc(Nc2ccc(CCO)cc2)nc1-c1nc2ccccc2s1	0.34 µM	0.56 µM	–

Further lines, with some results ahead:

IC50 [1]	IC50 [2]	Compound	also measured
0.094 µM	4.8 µM	CCc1nccn1CCc1ccc(Nc2ncc(C#N)c(-c3ccc(C(C)(C)N)cc3)n2)cc1	–
0.36 µM	2 µM	N#Cc1cnc(Nc2cccc(CN3CCOCC3)c2)nc1-c1ccccc1	–
> 10 µM	> 10 µM	N#Cc1cnc(Nc2ncccn2)nc1-c1ccccc1	–
0.49 µM	3.3 µM	COc1ccc(Nc2ncc(C#N)c(-c3ccccc3)n2)cc1	–
0.082 µM	0.47 µM	N#Cc1cnc(Nc2ccc(CCO)cc2)nc1-c1cccs1	–
> 10 µM	> 10 µM	N#Cc1cnc(Nc2ccc(Cl)cc2)nc1-c1ccccc1	–
1.6 µM	1.1 µM	CC(C)(C)c1nc(Nc2ccc(CCO)cc2)ncc1C#N	–
1 µM	> 10 µM	N#Cc1cnc(Nc2ccccc2)nc1-c1ccccc1	–
0.021 µM	5.6 µM	CN1CCN(CCc2ccc(Nc3ncc(C#N)c(-c4ccc(C(C)(C)N)cc4)n3)cc2)CC1	–
0.45 µM	21 µM	CC(C)(N)c1ccc(-c2nc(Nc3ccc(OCCN4CCOCC4)cc3)ncc2C#N)cc1	–
> 10 µM	> 10 µM	COc1ccccc1Nc1ncc(C#N)c(-c2ccccc2)n1	–
0.055 µM	5.7 µM	CC(C)(N)c1ccc(-c2nc(Nc3cccc(CCN4CCOCC4)c3)ncc2C#N)cc1	–
0.2 µM	2 µM	N#Cc1cnc(Nc2ccc(CCO)cc2)nc1-c1ccccc1	–
10 µM	> 10 µM	N#Cc1cnc(Nc2nc3ccccc3[nH]2)nc1-c1ccccc1	–
0.09 µM	0.41 µM	N#Cc1cnc(Nc2ccc(CCO)cc2)nc1-c1ccc2[nH]ccc2c1	–
0.38 µM	4.2 µM	COc1cccc(Nc2ncc(C#N)c(-c3ccccc3)n2)c1	–
0.061 µM	6.2 µM	N#Cc1cnc(Nc2ccc(CN3CCCC3)cc2)nc1-c1ccccc1	–
2.1 µM	> 10 µM	N#Cc1cnc(Nc2ccc3ccccc3c2)nc1-c1ccccc1	–
0.41 µM	3.3 µM	Cc1cc2cc(Nc3ncc(C#N)c(-c4ccccc4)n3)ccc2[nH]1	–
